Measurements as given in publication PMC10600239, “Selective MCL-1 inhibitor ABBV-467 is efficacious in tumor models but is associated with cardiac troponin increases in patients” (Communications Medicine, 2023).

Key:
Assay in all cases: Off-target profiling (Supplementary Data 1)
[1] = molecular target: off-target receptors, ion channels, and transporters (Homo sapiens, UniProt O43318); details: TR-FRET Kinome, SignalChem A-1167389.7 .05(Subs Conc)
[2] = molecular target: off-target receptors, ion channels, and transporters (Homo sapiens, UniProt O75716); details: TR-FRET Kinome; Invitrogen A-1213250.2 .0125(Subs Conc)
[3] = molecular target: off-target receptors, ion channels, and transporters (Homo sapiens, UniProt O94806); details: TR-FRET Kinome; Invitrogen A-1169612.6 .2(Subs Conc)
[4] = molecular target: off-target receptors, ion channels, and transporters (Homo sapiens, UniProt P04150); details: CEREP
[5] = molecular target: off-target receptors, ion channels, and transporters (Homo sapiens, UniProt P06239); details: TR-FRET Kinome; Invitrogen A-1167389.7 .1(Subs Conc)
[6] = molecular target: off-target receptors, ion channels, and transporters (Homo sapiens, UniProt P07333); details: TR-FRET Kinome; Invitrogen A-1167389.7 .004(Subs Conc)
[7] = molecular target: off-target receptors, ion channels, and transporters (Homo sapiens, UniProt P07948); details: TR-FRET Kinome, SignalChem A-1196581.2 .002(Subs Conc)
[8] = molecular target: off-target receptors, ion channels, and transporters (Homo sapiens, UniProt P08069); details: TR-FRET Kinome; Invitrogen A-1198909.2 .2(Subs Conc)
[9] = molecular target: off-target receptors, ion channels, and transporters (Homo sapiens, UniProt P08588)
[10] = molecular target: off-target receptors, ion channels, and transporters (Homo sapiens, UniProt P08908)
[11] = molecular target: off-target receptors, ion channels, and transporters (Homo sapiens, UniProt P15056); details: TR-FRET Kinome; Invitrogen A-1196442.2 .05(Subs Conc)
[12] = molecular target: off-target receptors, ion channels, and transporters (Homo sapiens, UniProt P28223)
[13] = molecular target: off-target receptors, ion channels, and transporters (Homo sapiens, UniProt P34947); details: TR-FRET Kinome; Invitrogen A-1180691.2 .1(Subs Conc)
[14] = molecular target: off-target receptors, ion channels, and transporters (Homo sapiens, UniProt P41595)
[15] = molecular target: off-target receptors, ion channels, and transporters (Homo sapiens, UniProt P57059); details: TR-FRET Kinome; Invitrogen A-1167389.7 .005(Subs Conc)
[16] = molecular target: off-target receptors, ion channels, and transporters (Homo sapiens, UniProt Q02750); details: TR-FRET Kinome; Invitrogen A-1169612.6 .025(Subs Conc)
[17] = molecular target: off-target receptors, ion channels, and transporters (Homo sapiens, UniProt Q07343); details: read-out: PDE4B2 Human - IC50; Bioprofiling 6pt Antag; cAMP
[18] = molecular target: off-target receptors, ion channels, and transporters (Homo sapiens, UniProt Q08345); details: TR-FRET Kinome; Invitrogen A-1196581.2 .003(Subs Conc)
[19] = molecular target: off-target receptors, ion channels, and transporters (Homo sapiens, UniProt Q08881); details: TR-FRET Kinome; Invitrogen A-1224615.7 .025(Subs Conc)
[20] = molecular target: off-target receptors, ion channels, and transporters (Homo sapiens, UniProt Q14164); details: TR-FRET Kinome; Invitrogen A-1167389.7 .003(Subs Conc)
[21] = molecular target: off-target receptors, ion channels, and transporters (Homo sapiens, UniProt Q14432); details: Bioprofiling 6pt Antag; cAMP
[22] = molecular target: off-target receptors, ion channels, and transporters (Homo sapiens, UniProt Q16539); details: TR-FRET Kinome; Invitrogen IVGN Tracer 199 .05(Subs Conc)
[23] = molecular target: off-target receptors, ion channels, and transporters (Homo sapiens, UniProt Q9UHD2); details: TR-FRET Kinome; Invitrogen A-1167389.7 .00625(Subs Conc)
[24] = molecular target: off-target receptors, ion channels, and transporters (Homo sapiens, UniProt Q9UQM7); details: TR-FRET Kinome; Invitrogen A-1169612.6 .003(Subs Conc)
[25] = Bioprofiling 6pt Antag, Serotonin (5-HT)

Chain of off-target receptors, ion channels, and transporters (Homo sapiens, UniProt P41595) (P41595 whole entry): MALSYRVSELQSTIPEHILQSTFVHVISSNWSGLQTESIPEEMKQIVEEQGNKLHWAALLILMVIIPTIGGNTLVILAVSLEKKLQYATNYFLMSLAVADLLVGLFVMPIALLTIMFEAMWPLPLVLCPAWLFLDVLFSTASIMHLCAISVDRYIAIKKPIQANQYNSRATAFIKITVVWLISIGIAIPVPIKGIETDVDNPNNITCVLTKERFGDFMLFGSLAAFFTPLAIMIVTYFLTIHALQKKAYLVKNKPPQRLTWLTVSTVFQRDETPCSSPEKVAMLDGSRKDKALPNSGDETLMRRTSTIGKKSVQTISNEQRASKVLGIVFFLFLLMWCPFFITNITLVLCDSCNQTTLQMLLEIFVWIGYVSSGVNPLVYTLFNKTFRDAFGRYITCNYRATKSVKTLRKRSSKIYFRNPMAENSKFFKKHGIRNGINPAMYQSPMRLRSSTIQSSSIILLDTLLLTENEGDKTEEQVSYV
Chain of off-target receptors, ion channels, and transporters (Homo sapiens, UniProt O43318) (O43318 1-303): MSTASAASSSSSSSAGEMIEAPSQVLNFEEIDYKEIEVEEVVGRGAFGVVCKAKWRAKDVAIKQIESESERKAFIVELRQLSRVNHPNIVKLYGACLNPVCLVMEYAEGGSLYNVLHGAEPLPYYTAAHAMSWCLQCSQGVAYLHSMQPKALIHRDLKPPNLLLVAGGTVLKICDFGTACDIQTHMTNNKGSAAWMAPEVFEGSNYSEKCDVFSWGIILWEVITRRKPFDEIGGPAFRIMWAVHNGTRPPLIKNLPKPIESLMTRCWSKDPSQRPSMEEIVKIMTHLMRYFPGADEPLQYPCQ
Chain of off-target receptors, ion channels, and transporters (Homo sapiens, UniProt O43318) (Q15750 437-504 partner): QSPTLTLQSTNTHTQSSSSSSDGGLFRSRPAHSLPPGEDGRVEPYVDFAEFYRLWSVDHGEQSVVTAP
Chain of off-target receptors, ion channels, and transporters (Homo sapiens, UniProt P07948) (P07948 2-512): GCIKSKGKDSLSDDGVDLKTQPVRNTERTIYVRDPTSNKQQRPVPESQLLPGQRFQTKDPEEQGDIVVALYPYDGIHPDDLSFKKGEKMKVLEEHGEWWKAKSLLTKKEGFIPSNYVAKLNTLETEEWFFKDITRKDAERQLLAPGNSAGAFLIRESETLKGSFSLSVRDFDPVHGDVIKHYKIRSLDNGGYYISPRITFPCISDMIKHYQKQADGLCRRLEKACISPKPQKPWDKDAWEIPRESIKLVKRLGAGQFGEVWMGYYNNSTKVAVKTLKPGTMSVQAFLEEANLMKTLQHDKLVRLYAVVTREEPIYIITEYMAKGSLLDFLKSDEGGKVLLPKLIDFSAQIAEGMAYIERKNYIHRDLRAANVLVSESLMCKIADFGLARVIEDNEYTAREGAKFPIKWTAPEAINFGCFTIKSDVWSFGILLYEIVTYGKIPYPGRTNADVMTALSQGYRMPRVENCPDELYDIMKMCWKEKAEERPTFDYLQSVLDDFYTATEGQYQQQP
Chain of off-target receptors, ion channels, and transporters (Homo sapiens, UniProt P08908) (P08908 whole entry): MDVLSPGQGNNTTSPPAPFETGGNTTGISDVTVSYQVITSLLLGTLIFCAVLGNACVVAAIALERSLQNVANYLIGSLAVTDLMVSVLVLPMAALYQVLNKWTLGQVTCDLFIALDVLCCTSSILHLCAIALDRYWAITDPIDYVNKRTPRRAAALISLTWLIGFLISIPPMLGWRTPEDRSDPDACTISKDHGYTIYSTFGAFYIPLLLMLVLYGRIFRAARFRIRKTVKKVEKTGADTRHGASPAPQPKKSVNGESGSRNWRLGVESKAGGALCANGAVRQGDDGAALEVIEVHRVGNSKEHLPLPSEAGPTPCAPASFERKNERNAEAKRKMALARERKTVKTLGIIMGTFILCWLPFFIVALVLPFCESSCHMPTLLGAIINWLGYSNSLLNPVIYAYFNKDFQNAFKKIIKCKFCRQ
Chain of off-target receptors, ion channels, and transporters (Homo sapiens, UniProt P08588) (P08588 whole entry): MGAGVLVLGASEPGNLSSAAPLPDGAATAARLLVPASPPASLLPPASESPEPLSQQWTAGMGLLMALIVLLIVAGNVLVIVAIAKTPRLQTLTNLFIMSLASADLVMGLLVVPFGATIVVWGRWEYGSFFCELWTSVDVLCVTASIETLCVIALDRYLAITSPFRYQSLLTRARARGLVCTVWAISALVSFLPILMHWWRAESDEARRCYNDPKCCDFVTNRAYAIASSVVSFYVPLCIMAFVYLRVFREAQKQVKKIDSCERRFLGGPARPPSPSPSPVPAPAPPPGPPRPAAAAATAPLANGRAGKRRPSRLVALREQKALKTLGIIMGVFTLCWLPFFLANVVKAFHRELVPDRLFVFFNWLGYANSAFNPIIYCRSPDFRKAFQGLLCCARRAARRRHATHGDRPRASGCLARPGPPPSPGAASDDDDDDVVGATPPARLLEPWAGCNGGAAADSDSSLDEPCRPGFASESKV
Chain of off-target receptors, ion channels, and transporters (Homo sapiens, UniProt P28223) (P28223 whole entry): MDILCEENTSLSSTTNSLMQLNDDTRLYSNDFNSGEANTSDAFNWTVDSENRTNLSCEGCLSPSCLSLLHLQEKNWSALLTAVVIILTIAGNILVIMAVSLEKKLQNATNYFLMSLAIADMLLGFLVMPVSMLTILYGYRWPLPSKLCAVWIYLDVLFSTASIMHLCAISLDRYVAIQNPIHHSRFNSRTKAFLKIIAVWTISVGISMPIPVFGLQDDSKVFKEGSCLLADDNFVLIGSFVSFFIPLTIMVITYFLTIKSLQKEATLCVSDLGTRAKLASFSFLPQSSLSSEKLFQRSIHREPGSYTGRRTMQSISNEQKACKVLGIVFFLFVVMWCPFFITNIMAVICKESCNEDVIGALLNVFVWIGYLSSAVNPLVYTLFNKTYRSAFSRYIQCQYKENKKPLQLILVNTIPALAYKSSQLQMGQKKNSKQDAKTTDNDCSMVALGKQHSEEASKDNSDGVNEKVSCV
Chain of off-target receptors, ion channels, and transporters (Homo sapiens, UniProt Q9UQM7) (Q9UQM7 whole entry): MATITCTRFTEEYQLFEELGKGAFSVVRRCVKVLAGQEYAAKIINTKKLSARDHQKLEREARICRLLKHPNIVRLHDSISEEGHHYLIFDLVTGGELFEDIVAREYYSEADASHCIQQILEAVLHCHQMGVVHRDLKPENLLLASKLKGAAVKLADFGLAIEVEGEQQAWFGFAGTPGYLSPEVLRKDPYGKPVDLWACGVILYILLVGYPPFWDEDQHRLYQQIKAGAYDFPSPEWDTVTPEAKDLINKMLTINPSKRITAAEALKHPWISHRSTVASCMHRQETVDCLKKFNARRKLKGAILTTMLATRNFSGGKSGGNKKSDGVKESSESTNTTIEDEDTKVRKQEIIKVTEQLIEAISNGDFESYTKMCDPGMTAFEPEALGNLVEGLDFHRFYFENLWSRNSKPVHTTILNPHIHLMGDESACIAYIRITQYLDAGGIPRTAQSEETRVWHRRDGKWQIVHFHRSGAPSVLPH
Chain of off-target receptors, ion channels, and transporters (Homo sapiens, UniProt P08069) (P08069 31-1367): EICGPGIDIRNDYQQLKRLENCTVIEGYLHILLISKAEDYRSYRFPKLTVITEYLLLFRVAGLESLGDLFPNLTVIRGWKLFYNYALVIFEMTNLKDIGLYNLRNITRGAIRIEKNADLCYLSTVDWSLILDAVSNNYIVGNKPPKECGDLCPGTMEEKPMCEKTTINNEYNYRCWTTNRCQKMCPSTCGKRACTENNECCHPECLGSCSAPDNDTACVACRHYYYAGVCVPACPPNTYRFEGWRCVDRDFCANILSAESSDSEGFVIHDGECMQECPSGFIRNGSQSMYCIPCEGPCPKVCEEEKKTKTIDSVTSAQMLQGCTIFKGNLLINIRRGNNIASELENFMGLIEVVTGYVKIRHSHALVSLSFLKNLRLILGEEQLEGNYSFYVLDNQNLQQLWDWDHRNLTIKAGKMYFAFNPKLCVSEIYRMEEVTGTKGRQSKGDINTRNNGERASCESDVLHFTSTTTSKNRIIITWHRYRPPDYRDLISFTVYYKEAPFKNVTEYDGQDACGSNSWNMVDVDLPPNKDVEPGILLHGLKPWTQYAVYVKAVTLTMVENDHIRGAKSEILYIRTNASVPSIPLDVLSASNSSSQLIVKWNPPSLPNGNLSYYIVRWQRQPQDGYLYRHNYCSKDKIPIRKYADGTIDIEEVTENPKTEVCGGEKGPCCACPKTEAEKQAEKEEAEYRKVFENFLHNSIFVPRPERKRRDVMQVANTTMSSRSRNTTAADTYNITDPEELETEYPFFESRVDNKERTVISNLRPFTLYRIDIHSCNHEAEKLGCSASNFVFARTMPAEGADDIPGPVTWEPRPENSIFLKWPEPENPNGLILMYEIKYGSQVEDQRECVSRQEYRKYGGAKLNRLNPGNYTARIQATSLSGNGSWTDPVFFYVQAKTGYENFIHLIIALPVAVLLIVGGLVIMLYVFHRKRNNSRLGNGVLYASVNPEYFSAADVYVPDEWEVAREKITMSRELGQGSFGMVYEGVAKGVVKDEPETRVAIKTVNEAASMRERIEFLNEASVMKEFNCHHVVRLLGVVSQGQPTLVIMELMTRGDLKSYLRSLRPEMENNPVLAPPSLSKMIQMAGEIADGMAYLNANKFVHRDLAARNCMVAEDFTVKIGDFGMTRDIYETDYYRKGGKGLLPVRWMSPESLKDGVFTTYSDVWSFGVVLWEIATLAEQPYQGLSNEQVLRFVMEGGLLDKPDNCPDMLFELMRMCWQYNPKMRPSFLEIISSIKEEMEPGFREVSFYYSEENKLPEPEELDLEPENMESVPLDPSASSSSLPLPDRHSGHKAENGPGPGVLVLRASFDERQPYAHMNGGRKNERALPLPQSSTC
Chain of off-target receptors, ion channels, and transporters (Homo sapiens, UniProt Q02750) (Q02750 whole entry): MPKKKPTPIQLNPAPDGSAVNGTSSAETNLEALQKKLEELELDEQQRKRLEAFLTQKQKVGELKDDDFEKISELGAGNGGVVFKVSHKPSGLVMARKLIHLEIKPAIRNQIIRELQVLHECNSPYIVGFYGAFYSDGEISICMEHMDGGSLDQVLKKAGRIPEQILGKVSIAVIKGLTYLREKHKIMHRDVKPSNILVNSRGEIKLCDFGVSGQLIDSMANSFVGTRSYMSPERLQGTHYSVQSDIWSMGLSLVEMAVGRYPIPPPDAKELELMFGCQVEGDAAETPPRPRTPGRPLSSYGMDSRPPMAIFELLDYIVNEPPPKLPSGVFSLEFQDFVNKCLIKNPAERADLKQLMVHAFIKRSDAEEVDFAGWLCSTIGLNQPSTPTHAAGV

## Cc1c(Cl)c2c(Cl)c(C)c1-c1c(-c3ccc(F)cc3)sc3ncnc(c13)O[C@@H](C(=O)O)Cc1cc(ccc1OCc1ccnc(-c3ccc(OC[C@H]4COCCO4)cc3)n1)OC[C@@H](CN1CCN(C)CC1)O2 [ABBV-467]
[1]; read-out: TAK1-TAB1 - IC50
  IC50: > 10 µM
[1]; read-out: TAK1-TAB1 - Ki
  Ki: > 3.91 µM
[2]
  STK16 - IC50: > 10 µM
[3]
  Prkcn - IC50: > 10 µM
[4]
  Glucocorticoid Human Agonist Ligand (Binding Assay) - IC50: 1 µM
[5]
  Lck - IC50: > 10 µM
[6]
  CSF1R - IC50: > 10 µM
[7]; read-out: LYN-B - IC50
  IC50: > 10 µM
[7]; read-out: LYN-B - Ki
  Ki: > 8.15 µM
[8]
  IGF1R - IC50: > 10 µM
[9]; Bioprofiling 6pt Ag
  Beta1 CHO Human - EC50: > 10 µM
[9]; Bioprofiling 6pt Antag, Norepinephrine
  Beta1 CHO Human - IC50: > 10 µM
[10]; Bioprofiling 6pt Ag
  5-HT1A CHO Human - EC50: > 10 µM
[10]; Bioprofiling 6pt Antag, 5-Carboxytryptamine (5-CT)
  5-HT1A CHO Human - IC50: > 10 µM
[11]
  BRAF - IC50: > 10 µM
[12]; Bioprofiling 6pt Ag
  5-HT2A CHO Human - EC50: > 10 µM
[12]; [25]
  5-HT2A CHO Human - IC50: > 10 µM
[13]
  GRK5 - IC50: > 10 µM
[14]; Bioprofiling 6pt Ag
  5-HT2B CHO Human - EC50: > 10 µM
[14]; [25]
  5-HT2B CHO Human - IC50: > 10 µM
[14]; CEREP
  5-HT2B Human (Functional - Agonist Effect) - EC50: > 100 µM
  5-HT2B Human (Functional - Antagonist Effect) - IC50: >100.00 µM
  5-HT2B Human (Functional - Antagonist Effect) - Kb: >15.30 µM
[15]
  SIK1 - IC50: > 10 µM
[16]
  MEK1 - IC50: > 10 µM
[17]
  IC50: > 10 µM
[18]
  DDR1 - IC50: > 10 µM
[19]
  ITK - IC50: > 10 µM
[20]
  IKKE - IC50: > 10 µM
[21]
  PDE3A Human - IC50: > 10 µM
[22]
  p38 alpha - IC50: > 10 µM
[23]
  TBK1 - IC50: > 10 µM
[24]
  CAMK2A - IC50: > 10 µM
